Laboratory results as given in US7300932B2, “Pyrrolo[1,2-b]pyridazine derivatives” (Japan Tobacco Inc., priority 2003, dated 2007).

Biological target: T1, human DGAT1 (Homo sapiens, UniProt O75907)
T1 construct: made in house; host or cells: insect cells (e.g., sf9, sf21, or High Five), Bac-to-Bac baculovirus; total cell membranes
T1 sequence (O75907 1-488): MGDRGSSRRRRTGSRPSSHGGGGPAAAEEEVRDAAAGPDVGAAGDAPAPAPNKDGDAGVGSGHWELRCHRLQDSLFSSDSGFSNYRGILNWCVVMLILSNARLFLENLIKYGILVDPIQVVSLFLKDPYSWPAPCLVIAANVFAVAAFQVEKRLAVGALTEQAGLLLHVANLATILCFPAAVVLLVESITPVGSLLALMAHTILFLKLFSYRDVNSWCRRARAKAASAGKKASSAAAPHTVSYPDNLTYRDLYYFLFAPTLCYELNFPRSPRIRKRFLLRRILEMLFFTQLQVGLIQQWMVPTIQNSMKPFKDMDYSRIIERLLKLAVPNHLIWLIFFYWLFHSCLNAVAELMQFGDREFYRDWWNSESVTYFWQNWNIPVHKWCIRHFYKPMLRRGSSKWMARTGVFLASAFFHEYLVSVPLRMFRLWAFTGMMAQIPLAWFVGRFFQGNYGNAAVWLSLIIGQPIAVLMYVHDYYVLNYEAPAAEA
Assay: DGAT Scintillation Proximity Assay (SPA) with membranes of insect cells expressing human flagtag DGAT1
Type: biochemical
Settings: DGAT inhibition
Description: In such an assay human DGAT1 is cloned from a human liver cDNA library. PCR is used to add a restriction site and flag epitope at the most 5′ end and a restriction site at the 3′ end of the sequence. Thereafter, human flagtag (FT) DGAT1 baculovirus may be generated using a Bac-to-Bac Baculovirus Expression System® (Invitrogen). Insect cells (e.g., sf9, sf21, or High Five) are infected for 24 to 72 h and collected by centrifugation. Cell pellets are resuspended in homogenization buffer and lysed using a homogenization device, such as a Microfluidizer. Total cell membranes are collected by ultracentrifugation at 45,000 rpm for 1 h.
A small aliquot (0.2 μg/well) of membrane is incubated with 10 μM compound or mercuric chloride (as positive control for inhibition) in the presence of enzyme substrate, dioleoyl glycerol (200 μM) in 384 well plates, final volume 50 μL per well. […] The reaction is stopped by adding Wheat Germ Agglutinin (WGA) SPA beads (0.2 mg) in mercuric chloride. Cell membranes are allowed to couple to the beads overnight. The signal can be measured using, for example, a Chemiluminescence Image Plate Reader (CLIPR) or TopCount device.

Compound | IC50 [nM]
CCOC(=O)c1c(C(=O)OCC)c2c(-c3ccccc3)cc(N3CCOCC3)nn2c1C1CC1 [Example 8, 7-Cyclopropyl-2-morpholin-4-yl-4-phenyl-pyrrolo[1,2-b]pyridazine-5,6-dicarboxylic acid diethyl ester] | > 500
CCOC(=O)c1c(C(=O)OCC)c2c(-c3ccccc3)cc(N3CCOCC3)nn2c1C [Example 24, 7-Methyl-2-morpholin-4-yl-4-phenyl-pyrrolo[1,2-b]pyridazine-5,6-dicarboxylic acid diethyl ester] | > 500
CCCc1c(-c2nnc(C)o2)c(C(=O)OCC)c2c(-c3ccccc3)cc(N3CCOCC3)nn12 [Example 78, 6-(5-Methyl-[1,3,4]oxadiazol-2-yl)-2-morpholin-4-yl-4-phenyl-7-propyl-pyrrolo[1,2-b]pyridazine-5-carboxylic acid ethyl ester] | > 500
CCCc1c(-c2ncc(-c3ccccc3)o2)c(C(=O)OCC)c2c(-c3ccccc3)cc(N3CCOCC3)nn12 [Example 80, 2-Morpholin-4-yl-4-phenyl-6-(5-phenyl-oxazol-2-yl)-7-propyl-pyrrolo[1,2-b]pyridazine-5-carboxylic acid ethyl ester] | > 500
CCCc1c(C(=O)OCC)c(C(=O)OCC)c2c(C3CCCCC3)cc(N3CCOCC3)nn12 [Example 90, 4-Cyclohexyl-2-morpholin-4-yl-7-propyl-pyrrolo[1,2-b]pyridazine-5,6-dicarboxylic acid diethyl ester] | < 500
CCCc1c(C(=O)OCC)c(C(=O)OCC)c2c(-c3ccccc3)cc(N3CCC3)nn12 [Example 95, 2-Azetidin-1-yl-4-phenyl-7-propyl-pyrrolo[1,2-b]pyridazine-5,6-dicarboxylic acid diethyl ester] | > 500
CCCc1c(C(=O)OCC)c(C(=O)OCC)c2c(-c3ccccc3)cc(N3CCCC3)nn12 [Example 96, 4-Phenyl-7-propyl-2-pyrrolidin-1-yl-pyrrolo[1,2-b]pyridazine-5,6-dicarboxylic acid diethyl ester] | < 500
